Data reported in US8779004B2, “Stable emulsion formulations” (Amgen, Inc., priority 2006, dated 2014).
Marks after values point to notes of the source that are not given here.

Assays:
Type in all cases: physicochemical
[1] = pH and particle size of crude cinacalcet emulsions with different oils and phospholipids
Protocol: Table 4 illustrates the effect of different oils and phospholipids on pH and particle size of crude emulsions prepared for cinacalcet. The particle size distribution of the droplets was measured using light diffraction techniques after dilution of the emulsion in water. The particle size is represented by D(4,3) which is the volume corrected mean of the particles (units). As used herein, SBO—soybean oil (long chain triglycerides); MCT—medium chain triglycerides; STG—structured triglycerides (including PEGylated oils)
Coarse prototype emulsion formulations were prepared at a batch size of 10 mLs by an Ultraturrax T25 S1 Janke and Kunkel blade homogenizer equipped with a 10 mm rotostator, followed by sonication from a Vibracell Ultrasonicator with a titanium microtip probe. Batches at a 40 mL size were prepared in a similar manner, with the exception of the ultrasonicator having a ¾″ titanium probe tip.
Coarse prototype emulsions at a batch size of 10-40 mLs were prepared by mixing the oil with lecithin by a blade mixer at 60° C. protected by a nitrogen headspace. Cinacalcet was added and mixed well, followed by the addition of the aqueous phase containing glycerin and buffer until a homogenous mixture was made. A sonicator probe was used to further process the emulsion premix while maintaining the nitrogen headspace. Coarse emulsions prepared by sonication were centrifuged at 3K RPM to remove gross particulates on a Dupont Sorval centrifuge, and dispensed by removal of the top contents of the emulsion for evaluation.

[2] = Long-term storage stability of emulsions (assay, pH, particle size); details: 5 mg/mL emulsion
Protocol: Calcimimetics emulsions for long-term studies were prepared at 5 mg/mL drug concentration, 5% SBO, 2% egg lecithin, 2% glycerin, 20 mM TRIS buffer at pH 9. The emulsions were packed in glass vials at 20 mL each and stored inverted in stability chambers. At each time-point, 3 vials from each chamber were pulled and analyzed for the calcimimetic concentration, pH and particle size. […] The values for pH dropped over time, with greater magnitude of drop seen at higher temperature.

[3] = Effect of pH and buffer type on emulsion stability (pH, particle size before/after one autoclave cycle); details: after one autoclave cycle, 2% egg lecithin
Protocol: Tables 6 summarizes the effect of pH and the buffer type on emulsion stability as measured by the particle size. Emulsions were made using 2% egg lecithin, 2.25% glycerin in water for injection. Particle size and pH were measured after one-autoclave cycle. For all emulsions, particle size before autoclaving as represented by D(4,3) was in a range of 0.30 to 0.45 μm. Emulsions were stable at high pH using TRIS and DEA buffer, and at low pH using phosphate buffer over varying concentrations of cinacalcet and soybean oil. Closer to pH 7 using phosphate buffer, increase in particle size was seen after autoclaving.
Particle size data is reported as D(4,3) before and after one autoclaving cycle.

[4] = crude emulsion, MCT 5%, 1% Purified Egg Lecithin
[5] = crude emulsion, MCT 5%, 1% Purified Soy Lecithin
[6] = crude emulsion, MCT 5%, 2% Purified Egg Lecithin
[7] = crude emulsion, MCT 5%, % Purified Soy Lecithin
[8] = crude emulsion, MCT 10%, 1% Purified Egg Lecithin
[9] = crude emulsion, MCT 10%, 1% Purified Soy Lecithin
[10] = crude emulsion, MCT 10%, 2% Purified Egg Lecithin
[11] = crude emulsion, MCT 10%, % Purified Soy Lecithin
[12] = crude emulsion, MCT 20%, 1% Purified Egg Lecithin
[13] = crude emulsion, MCT 20%, 1% Purified Soy Lecithin
[14] = crude emulsion, MCT 20%, 2% Purified Egg Lecithin
[15] = crude emulsion, MCT 20%, % Purified Soy Lecithin
[16] = crude emulsion, SBO 5%, 1% Purified Egg Lecithin
[17] = crude emulsion, SBO 5%, 1% Purified Soy Lecithin
[18] = crude emulsion, SBO 5%, 2% Purified Egg Lecithin
[19] = crude emulsion, SBO 5%, % Purified Soy Lecithin
[20] = crude emulsion, SBO 10%, 1% Purified Egg Lecithin
[21] = crude emulsion, SBO 10%, 1% Purified Soy Lecithin
[22] = crude emulsion, SBO 10%, 2% Purified Egg Lecithin
[23] = crude emulsion, SBO 10%, % Purified Soy Lecithin
[24] = crude emulsion, SBO 20%, 1% Purified Egg Lecithin
[25] = crude emulsion, SBO 20%, 1% Purified Soy Lecithin
[26] = crude emulsion, SBO 20%, 2% Purified Egg Lecithin
[27] = crude emulsion, SBO 20%, % Purified Soy Lecithin
[28] = crude emulsion, STG 5%, 1% Purified Egg Lecithin
[29] = crude emulsion, STG 5%, 2% Purified Egg Lecithin
[30] = crude emulsion, STG 10%, 1% Purified Egg Lecithin
[31] = crude emulsion, STG 10%, 2% Purified Egg Lecithin
[32] = crude emulsion, STG 20%, 1% Purified Egg Lecithin
[33] = crude emulsion, STG 20%, 2% Purified Egg Lecithin
[34] = DEA 0.05%, target cinacalcet 1 mg/mL, SBO conc. 10
[35] = DEA 0.05%, target cinacalcet 5 mg/mL, SBO conc. 5
[36] = DEA 0.05%, target cinacalcet 10 mg/mL, SBO conc. 10
[37] = DEA 0.1%, target cinacalcet 5 mg/mL, SBO conc. 5
[38] = DEA 0.2%, target cinacalcet 5 mg/mL, SBO conc. 5
[39] = DEA 0.3%, target cinacalcet 5 mg/mL, SBO conc. 5
[40] = No buffer, target cinacalcet 5 mg/mL, SBO conc. 10
[41] = PO4 buffer 15 mM, target cinacalcet 5 mg/mL, SBO conc. 10
[42] = TRIS 5 mM, target cinacalcet 1 mg/mL, SBO conc. 10
[43] = TRIS 5 mM, target cinacalcet 5 mg/mL, SBO conc. 10
[44] = TRIS 5 mM, target cinacalcet 10 mg/mL, SBO conc. 20
[45] = TRIS 10 mM, target cinacalcet 5 mg/mL, SBO conc. 5
[46] = TRIS 15 mM, target cinacalcet 5 mg/mL, SBO conc. 5
[47] = TRIS 20 mM, target cinacalcet 5 mg/mL, SBO conc. 5

Q: Which results are given for C[C@@H](NCCCc1cccc(C(F)(F)F)c1)c1cccc2ccccc12 [Cinacalcet, N-(1-(R)-(1-naphthyl)ethyl]-3-[3-(trifluoromethyl)phenyl]-1-aminopropane]?
A: D(4, 3) [1, 4]: 0.39 µm; pH [1, 4]: 8.58; D(4, 3) [1, 5]: 0.36 µm; pH [1, 5]: 9.12; D(4, 3) [1, 6]: 0.35 µm; pH [1, 6]: 8.39; D(4, 3) [1, 7]: 0.32 µm; PH [1, 7]: 8.97; D(4, 3) [1, 8]: 0.53 µm; pH [1, 8]: 8.61; D(4, 3) [1, 9]: 0.21 µm; pH [1, 9]: 9.09; D(4, 3) [1, 10]: 0.4 µm; pH [1, 10]: 8.29; D(4, 3) [1, 11]: 0.44 µm; PH [1, 11]: 8.99; D(4, 3) [1, 12]: 0.57 µm; pH [1, 12]: 8.41; D(4, 3) [1, 13]: 0.47 µm; pH [1, 13]: 8.81; D(4, 3) [1, 14]: 0.42 µm; pH [1, 14]: 8.23; D(4, 3) [1, 15]: 0.31 µm; PH [1, 15]: 8.95; D(4, 3) [1, 16]: 1.07 µm; pH [1, 16]: 8.81; D(4, 3) [1, 17]: 1.3 µm; pH [1, 17]: 8.94; D(4, 3) [1, 18]: 0.77 µm; pH [1, 18]: 8.53; D(4, 3) [1, 19]: 0.81 µm; PH [1, 19]: 8.99; D(4, 3) [1, 20]: 0.65 µm; pH [1, 20]: 8.80; D(4, 3) [1, 21]: 0.98 µm; pH [1, 21]: 8.86; D(4, 3) [1, 22]: 0.68 µm; pH [1, 22]: 8.46; D(4, 3) [1, 23]: 0.4 µm; PH [1, 23]: 8.91; D(4, 3) [1, 24]: 1.42 µm; pH [1, 24]: 8.62; D(4, 3) [1, 25]: 1.4 µm; pH [1, 25]: 8.73; D(4, 3) [1, 26]: 1.06 µm; pH [1, 26]: 8.39; D(4, 3) [1, 27]: 0.49 µm; PH [1, 27]: 8.82; D(4, 3) [1, 28]: 0.72 µm; pH [1, 28]: 8.55; pH ([1]; crude emulsion, STG 5%, 1% Purified Soy Lecithin): 9.09; D(4, 3) [1, 29]: 0.52 µm; pH [1, 29]: 8.46; PH ([1]; crude emulsion, STG 5%, % Purified Soy Lecithin): 9.04; D(4, 3) [1, 30]: 1.23 µm; pH [1, 30]: 8.71; pH ([1]; crude emulsion, STG 10%, 1% Purified Soy Lecithin): 9.00; D(4, 3) [1, 31]: 0.81 µm; pH [1, 31]: 8.37; PH ([1]; crude emulsion, STG 10%, % Purified Soy Lecithin): 9.01; D(4, 3) [1, 32]: 0.84 µm; pH [1, 32]: 8.52; pH ([1]; crude emulsion, STG 20%, 1% Purified Soy Lecithin): 8.99; D(4, 3) [1, 33]: 1.18 µm; pH [1, 33]: 8.28; PH ([1]; crude emulsion, STG 20%, % Purified Soy Lecithin): 9.07; D(4, 3) ([1]; emulsion, STG 5%, 1% Purified Soy Lecithin, after a single autoclaving cycle): 0.40^a; D(4, 3) ([1]; emulsion, STG 5%, % Purified Soy Lecithin, after a single autoclaving cycle): 0.34^a; D(4, 3) ([1]; emulsion, STG 10%, 1% Purified Soy Lecithin, after a single autoclaving cycle): 0.73^a; D(4, 3) ([1]; emulsion, STG 10%, % Purified Soy Lecithin, after a single autoclaving cycle): 0.41^a; D(4, 3) ([1]; emulsion, STG 20%, % Purified Soy Lecithin, after a single autoclaving cycle): 0.46^a; changes in particle size ([2]; 2 years at 5° C. and 25° C.): No significant changes; cinacalcet assay and impurity levels ([2]; 2 years at 5° C. and 25° C.): within specifications; cinacalcet assay and impurity levels ([2]; 9 months at 40° C.): within specifications; changes in particle size ([2]; 18 months at 40° C.): No significant changes; D(4, 3) [3, 34]: 0.44 μm; pH [3, 34]: 8.81; D(4, 3) [3, 35]: 0.39 μm; pH [3, 35]: 8.77; D(4, 3) [3, 36]: 0.41 μm; pH [3, 36]: 8.82; D(4, 3) [3, 37]: 0.40 μm; pH [3, 37]: 8.95; D(4, 3) [3, 38]: 0.35 μm; pH [3, 38]: 9.13; D(4, 3) [3, 39]: 0.36 μm; pH [3, 39]: 9.12; D(4, 3) [3, 40]: 1.48 μm; pH [3, 40]: 8.45; pH ([3]; PO4 buffer 10 mM (first of two emulsions), target cinacalcet 5 mg/mL, SBO conc. 5): 6.36; pH ([3]; PO4 buffer 10 mM (second of two emulsions), target cinacalcet 5 mg/mL, SBO conc. 5): 6.78; D(4, 3) ([3]; PO4 buffer 10 mM, pH 6.36, target cinacalcet 5 mg/mL, SBO conc. 5): 0.39 μm; D(4, 3) ([3]; PO4 buffer 10 mM, pH 6.78, target cinacalcet 5 mg/mL, SBO conc. 5): 0.76 μm; D(4, 3) [3, 41]: 1.59 μm; pH [3, 41]: 7.15; D(4, 3) [3, 42]: 0.48 μm; pH [3, 42]: 8.75; pH ([3]; TRIS 5 mM, target cinacalcet 5 mg/mL, SBO conc. 5): 8.80; D(4, 3) [3, 43]: 0.32 μm; pH [3, 43]: 8.87; pH ([3]; TRIS 5 mM, target cinacalcet 10 mg/mL, SBO conc. 10): 8.82; D(4, 3) [3, 44]: 0.36 μm; pH [3, 44]: 8.82; D(4, 3) [3, 45]: 0.30 μm; pH [3, 45]: 9.06; D(4, 3) [3, 46]: 0.34 μm; pH [3, 46]: 9.04; D(4, 3) [3, 47]: 0.29 μm; pH [3, 47]: 9.13
